Where a name gives a salt, the structure may show the parent alone.
Assays:
[1] = tested on: histone H4 Arginine 3 dimethylation mark in TE11 cells; experiment: PRMT5 Biomarker Assay; type: cell-based; details: Homo sapiens, TE-11; TE11 cell line, 72 hours incubation, Di-Methyl Histone H4R3 ELISA corrected for total protein
Method: Compounds of the invention may be tested for potency to inhibit the histone H4 Arginine 3 dimethylation mark in the following assay:
The cell line TE11 was seeded at a density of 12,000 cells per well in 96 well tissue culture plates in DME medium and 10% foetal bovine serum, and allowed to adhere overnight under standard culture conditions (37° C., 5% CO2). […] The methylation level was determined using the EpiQuik™ Global Di-Methyl Histone H4R3 Quantification ELISA Kit (Epigentek, Farmingdale, N.Y.) as per the manufacturer's recommendations; in parallel the total protein amount in the lysate was quantified using a Lowry protein assay.

[2] = target: Full-length PRMT5 enzyme (NCBI Reference sequence NP_006100.2) co-expressed with His6-MEP50 (Homo sapiens (Human), UniProt O14744); experiment: PRMT5 Biochemical Assay; details: histone H4 derived peptide substrate 200 nM, 1 μM S-Adenosyl methionine, 4 hours at 37° C., Transcreener EPIGEN fluorescence polarisation
Full-length PRMT5 enzyme (NCBI Reference sequence NP_006100.2) co-expressed with His6-MEP50, sequence (O14744 whole entry): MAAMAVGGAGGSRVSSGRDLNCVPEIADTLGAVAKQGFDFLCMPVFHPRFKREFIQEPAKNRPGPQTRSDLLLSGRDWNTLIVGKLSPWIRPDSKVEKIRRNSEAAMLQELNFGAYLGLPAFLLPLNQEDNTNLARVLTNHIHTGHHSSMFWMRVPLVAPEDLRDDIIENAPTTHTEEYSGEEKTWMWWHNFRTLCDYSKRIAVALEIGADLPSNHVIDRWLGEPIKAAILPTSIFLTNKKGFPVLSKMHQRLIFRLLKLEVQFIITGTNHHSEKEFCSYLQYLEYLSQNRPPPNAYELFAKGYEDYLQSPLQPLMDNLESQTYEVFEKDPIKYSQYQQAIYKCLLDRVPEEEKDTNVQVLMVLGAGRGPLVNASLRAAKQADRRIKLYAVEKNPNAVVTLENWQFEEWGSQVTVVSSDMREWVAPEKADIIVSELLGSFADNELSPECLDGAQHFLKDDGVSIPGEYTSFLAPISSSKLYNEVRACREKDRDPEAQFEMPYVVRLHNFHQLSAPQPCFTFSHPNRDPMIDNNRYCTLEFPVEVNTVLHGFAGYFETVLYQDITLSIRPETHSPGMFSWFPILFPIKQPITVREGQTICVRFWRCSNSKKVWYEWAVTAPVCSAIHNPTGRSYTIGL
Full-length PRMT5 enzyme (NCBI Reference sequence NP_006100.2) co-expressed with His6-MEP50, sequence (Q9BQA1 whole entry partner): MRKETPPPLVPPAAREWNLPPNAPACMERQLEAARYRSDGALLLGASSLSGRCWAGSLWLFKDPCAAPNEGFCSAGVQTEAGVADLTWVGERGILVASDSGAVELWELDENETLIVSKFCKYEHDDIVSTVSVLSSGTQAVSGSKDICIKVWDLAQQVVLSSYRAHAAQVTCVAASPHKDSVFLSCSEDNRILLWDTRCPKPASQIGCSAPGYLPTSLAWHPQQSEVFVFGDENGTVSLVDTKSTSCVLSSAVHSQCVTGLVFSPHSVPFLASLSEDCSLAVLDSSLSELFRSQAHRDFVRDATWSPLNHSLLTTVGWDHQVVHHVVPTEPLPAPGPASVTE
Method: Compounds of the invention may be tested for in vitro activity in the following assay: A histone H4 derived peptide is used as substrate (amino acid sequence: […]N H2). Full-length PRMT5 enzyme (NCBI Reference sequence NP_006100.2) was co-expressed with His6-MEP50 in insect cells and purified via Nickel immobilized metal affinity and gel filtration chromatography (“the enzyme”).
The 6 μL assay reactions are run in Greiner brand black 384-well low volume plates. All reactions contained assay buffer (phosphate buffered saline, 0.01% (v/v) Tween-20, 0.01% (w/v) albumin from chicken egg white, 1 mM dithiothreitol, 200 nM peptide substrate, 1 μM S-Adenosyl methionine, and 15 ng/reaction enzyme, with the enzyme being omitted from negative control reactions. Compounds were added in a volume of 100 nL from dilution series prepared in DMSO, positive and negative control reactions receiving the same volume DMSO without compound. The plates were sealed with adhesive seals and incubated for 4 hours at 37° C. Reaction progress was measured using the Transcreener™ EPIGEN methyltransferase assay (BellBrook Labs, Madison, Wis.) as recommended by the manufacturer. To each reaction 2 μL detection mix were added, containing coupling enzymes, fluorescence polarisation tracer, and AMP antibody. Plates were incubated for 90 minutes before being read on a PerkinElmer EnVision™ plate reader in fluorescence polarisation mode.

Compound | IC50 [1] | IC50 [2]
C1=C(c2ccc3nc(-c4ccc(OCc5ccccc5)cc4)[nH]c3n2)CCNC1 [Example 45, 2-(4-(benzyloxy)phenyl)-5-(1,2,3,6-tetrahydropyridin-4-yl)-3H-imidazo[4,5-b]pyridine] | 1.21 µM | 
Cn1ccc(-c2ccc3nc(-c4ccc(COc5ccccc5)cc4)[nH]c3n2)n1 [Example 38, 5-(1-methyl-1H-pyrazol-3-yl)-2-(4-(phenoxymethyl)phenyl)-3H-imidazo[4,5-b]pyridine] |  | 2.39 µM
c1ccc(OCc2ccc(-c3nc4cc(C5CCNCC5)cnc4[nH]3)cc2)cc1 [Example 9, 2-(4-(phenoxymethyl)phenyl)-6-(piperidin-4-yl)-3H-imidazo[4,5-b]pyridine] | 0.645 µM | 
CC(=O)N1CCC(c2cnc3[nH]c(-c4ccc(OCc5ccccc5)cc4)nc3c2)CC1 [Example 13, 1-(4-(2-(4-(Benzyloxy)phenyl)-3H-imidazo[4,5-b]pyridin-6-yl)piperidin-1-yl)ethanone] |  | 0.339 µM
Clc1ccnc2[nH]c(-c3ccc(OCc4ccccc4)cc3)nc12 [Example 4, 2-(4-(benzyloxy)phenyl)-7-chloro-3H-imidazo[4,5-b]pyridine] | 0.127 µM | 
CC(C)(C)OC(=O)N1CCC(Nc2ccc3nc(-c4ccc(OCc5ccccc5)cc4)[nH]c3n2)CC1 [Example 32, tert-butyl 4-((2-(4-(benzyloxy)phenyl)-3H-imidazo[4,5-b]pyridin-5-yl)amino)piperidine-1-carboxylate] |  | 0.827 µM
c1ccc(COc2ccc(-c3nc4ccc(N5CCSCC5)nc4[nH]3)cc2)cc1 [Example 23, 4-(2-(4-(benzyloxy)phenyl)-3H-imidazo[4,5-b]pyridin-5-yl)thiomorpholine] |  | 0.497 µM
CCS(=O)(=O)N1CCN(c2ccc3nc(-c4ccc(OCc5ccccc5)c(C)c4)[nH]c3n2)CC1 [Example 74, 2-(4-(benzyloxy)-3-methylphenyl)-5-(4-(ethylsulfonyl)piperazin-1-yl)-3H-imidazo[4,5-b]pyridine] |  | 1.36 µM
CCS(=O)(=O)N1CCN(c2ccc3nc(-c4ccc(OCc5ccccc5)c(-c5ccn[nH]5)c4)[nH]c3n2)CC1 [Example 70] |  | 1.11 µM
O=C(O)c1cc(-c2nc3cc(C4CCNCC4)cnc3[nH]2)ccc1OCc1ccccc1 [Example 67, 2-(benzyloxy)-5-(6-(piperidin-4-yl)-3H-imidazo[4,5-b]pyridin-2-yl)benzoic acid dihydrochloride salt] |  | 3.72 µM
c1ccc(COc2ccc(-c3nc4ccc(C5CC5)nc4[nH]3)cc2)cc1 [Example 105] |  | 1.5 µM
O=C(O)Cc1ccnc2[nH]c(-c3ccc(OCc4ccccc4)cc3)nc12 [Example 77, 2-(2-(4-(benzyloxy)phenyl)-3H-imidazo[4,5-b]pyridin-7-yl)acetic acid] |  | 0.901 µM
CCS(=O)(=O)N1CCN(c2ccc3nc(-c4ccc(OCc5ccccc5)c(-c5cccnc5)c4)[nH]c3n2)CC1 [Example 71] |  | 0.542 µM
c1ccc(CSc2ccc(-c3nc4ccc(N5CCNCC5)nc4[nH]3)cc2)cc1 [Example 96, 2-(4-(benzylthio)phenyl)-5-(piperazin-1-yl)-3H-imidazo[4,5-b]pyridine] |  | 0.585 µM
O=C(Nc1ccc(-c2nc3cccnc3[nH]2)cc1)c1ccccc1 [Example 3, N-(4-(3H-imidazo[4,5-b]pyridin-2-yl)phenyl)benzamide] |  | 3.97 µM
c1ccc(COc2ccc(-c3nc4ccc(-c5cncnc5)nc4[nH]3)cc2)cc1 [Example 106] |  | 9 µM
O=S1(=O)CCN(c2ccc3nc(-c4ccc(OCc5ccccc5)cc4)[nH]c3n2)CC1 [Example 25, 4-(2-(4-(benzyloxy)phenyl)-3H-imidazo[4,5-b]pyridin-5-yl)thiomorpholine 1,1-dioxide] |  | 0.619 µM
Cn1cc(-c2ccc3nc(-c4ccc(OCc5ccccc5)cc4)[nH]c3n2)cn1 [Example 107] |  | 1.67 µM
CNC(=O)Cc1ccnc2[nH]c(-c3ccc(OCc4ccccc4)cc3)nc12 [Example 93, 2-(2-(4-(benzyloxy)phenyl)-3H-imidazo[4,5-b]pyridin-7-yl)-N-methylacetamide] |  | 2.14 µM
c1ccc(COc2ccc(-c3nc4ccc(NCC5CCNCC5)nc4[nH]3)cc2)cc1 [Example 52] |  | 0.935 µM
CS(=O)(=O)N1CCC(c2cnc3[nH]c(-c4ccc(OCc5ccccc5)cc4)nc3c2)CC1 [Example 83, 2-(4-(benzyloxy)phenyl)-6-(1-(methylsulfonyl)piperidin-4-yl)-3H-imidazo[4,5-b]pyridine] |  | 1.11 µM

The remaining compounds from weak to strong by IC50 [2], led by results:

IC50 [1] | IC50 [2] | Compound
 | 0.477 µM | CCOC(=O)N1CCC(c2ccc3nc(-c4ccc(OCc5ccccc5)cc4)[nH]c3n2)CC1 [Example 88, ethyl 4-(2-(4-(benzyloxy)phenyl)-3H-imidazo[4,5-b]pyridin-5-yl)piperidine-1-carboxylate]
 | 0.45 µM | CN(C)c1ccc2nc(-c3ccc(OCc4ccccc4)cc3)[nH]c2n1 [Example 48, 2-(4-(benzyloxy)phenyl)-N,N-dimethyl-3H-imidazo[4,5-b]pyridin-5-amine]
 | 0.426 µM | NCC1CCN(c2ccc3nc(-c4ccc(OCc5ccccc5)cc4)[nH]c3n2)CC1 [Example 55]
 | 0.317 µM | NCC1CCCN(c2ccc3nc(-c4ccc(OCc5ccccc5)cc4)[nH]c3n2)C1 (stereo not drawn) [Example 50]
0.731 µM | 0.223 µM | c1ccc(COc2ccc(-c3nc4ccc(C5CCNCC5)nc4[nH]3)cc2)cc1 [Example 40, 2-(4-(benzyloxy)phenyl)-5-(piperidin-4-yl)-3H-imidazo[4,5-b]pyridine]
 | 0.197 µM | c1ccc(COc2ccc(-c3nc4ccc(N5CCNCC5)nc4[nH]3)cc2)cc1 [Example 47, 2-(4-(benzyloxy)phenyl)-5-(piperazin-1-yl)-3H-imidazo[4,5-b]pyridine]
 | 0.166 µM | CC(=O)N1CC=C(c2ccc3nc(-c4ccc(OCc5ccccc5)cc4)[nH]c3n2)CC1 [Example 98, 1-(4-(2-(4-(benzyloxy)phenyl)-3H-imidazo[4,5-b]pyridin-5-yl)-3,6-dihydropyridin-1 (2H)-yl)ethan-1-one]
 | 0.151 µM | CN1CCC(c2ccc3nc(-c4ccc(COc5ccccc5)cc4)[nH]c3n2)CC1 [Example 86, 5-(1-methylpiperidin-4-yl)-2-(4-(phenoxymethyl)phenyl)-3H-imidazo[4,5-b]pyridine]
 | 0.151 µM | c1ccc(OCc2ccc(-c3nc4ccc(C5CCNCC5)nc4[nH]3)cc2)cc1 [Example 85, 2-(4-(phenoxymethyl)phenyl)-5-(piperidin-4-yl)-3H-imidazo[4,5-b]pyridine]
 | 0.148 µM | CN1CCCC(c2ccc3nc(-c4ccc(COc5ccccc5)cc4)[nH]c3n2)C1 (stereo not drawn) [Example 99, 5-(1-methylpiperidin-3-yl)-2-(4-(phenoxymethyl)phenyl)-3H-imidazo[4,5-b]pyridine]
 | 0.148 µM | CCS(=O)(=O)N1CCC(c2ccc3nc(-c4ccc(OCc5ccccc5)cc4)[nH]c3n2)CC1 [Example 90, 2-(4-(benzyloxy)phenyl)-5-(1-(ethylsulfonyl)piperidin-4-yl)-3H-imidazo[4,5-b]pyridine]
 | 0.132 µM | CN1CCN(c2ccc3nc(-c4ccc(OCc5ccccc5)cc4)[nH]c3n2)CC1 [Example 26, 2-(4-(benzyloxy)phenyl)-5-(4-methylpiperazin-1-yl)-3H-imidazo[4,5-b]pyridine]
1.83 µM | 0.107 µM | c1ccc(OCc2ccc(-c3nc4cc(C5CCCNC5)cnc4[nH]3)cc2)cc1 (stereo not drawn) [Example 16, 2-(4-(phenoxymethyl)phenyl)-6-(piperidin-3-yl)-3H-imidazo[4,5-b]pyridine]

— patent US9856252B2, “2-(hetero)aryl-benzimidazole and imidazopyridine derivatives as inhibitors of asparagime emethyl transferase” (Cancer Therapeutics CRC Pty Ltd, priority 2013, dated 2018)
